# Measured values as given in patent publication US20230085307A1, “PYRIDAZINONE COMPOUND AND HERBICIDE” (NISSAN CHEMICAL CORPORATION, priority 2019, published 2023).
# Test system: barnyard grass
# Experiment: Test Example 4: herbicidal effect by soil treatment (Table 19, symbol H)
# Assay type: in vivo, barnyard grass (Echinochloa crus-galli)
# Settings: amount of applied herbicide 320 g/ha
# Summary of the method: (§1)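 Herbicidal effect was rated 3 weeks after treatment, using the scoring criteria of an earlier test. The compound, formulated as an emulsion and diluted in water to a set herbicide amount, had been sprayed uniformly on soil over freshly sown seeds. Growth took place in a greenhouse at 25° C. to 30° C.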
row,Structure (SMILES),"H: barnyard grass, herbicidal effect grade"
1,COc1ccc2c(-c3c(O)c(C)nn(C)c3=O)c(-c3ccc4c(c3)OCCO4)sc2c1 [3-082],0 (Herbicidal rate of 5% or less (almost no effect))
2,CCCC(=O)Oc1c(C)nn(C)c(=O)c1-c1c(-c2ccc3c(c2)OCCO3)sc2cc(OC)ccc12 [3-083],3 (Herbicidal rate of 40% or more and less than 70%)

# Test system: windgrass
# Experiment: Test Example 5: herbicidal effect by foliage application, plastic box (Table 20, symbol L)
# Assay type: in vivo, windgrass (Apera spica-venti)
# Settings: foliage application, 320 g/ha, three weeks after application
# Summary of the method: (§2)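 Foliar spray test: emulsion formulation diluted in water to a set application rate, sprayed onto 14-day-old plants raised in diluvial soil at 25° C to 30° C under glass. Both herbicidal effect and crop effect rated visually three weeks later.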
row,Structure (SMILES),"L: windgrass, herbicidal effect grade"
1,COc1ccc2c(-c3c(O)c(C)nn(C)c3=O)c(-c3ccc4c(c3)OCCO4)sc2c1 [3-082],0 (Herbicidal rate of 5% or less (almost no effect))
2,CCCC(=O)Oc1c(C)nn(C)c(=O)c1-c1c(-c2ccc3c(c2)OCCO3)sc2cc(OC)ccc12 [3-083],0 (Herbicidal rate of 5% or less (almost no effect))

# Test system: Japanese bulrush
# Experiment: Test Example 1: herbicidal activity, application before weed generation under submerged conditions (Table 16, symbol B)
# Assay type: in vivo, Japanese bulrush (Schoenoplectus juncoides)
# Settings: amount of applied herbicide 320 g/ha
# Summary of the method: (§3)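 Submerged Wagner pots (alluvial soil, 4 cm water) sown with weed seeds and planted with 2.5-leaf rice seedlings; emulsifiable concentrate diluted in water applied to water surface on sowing day. Held in greenhouse at 25-30 °C; injury scored 0-5 by herbicidal rate after three weeks.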
row,Structure (SMILES),"Herbicidal effect, B: Japanese bulrush"
1,COc1ccc2c(-c3c(O)c(C)nn(C)c3=O)c(-c3ccc4c(c3)OCCO4)sc2c1 [3-082],5 (Herbicidal rate of 90% or more (almost completely withered))
2,CCCC(=O)Oc1c(C)nn(C)c(=O)c1-c1c(-c2ccc3c(c2)OCCO3)sc2cc(OC)ccc12 [3-083],4 (Herbicidal rate of 70% or more and less than 90%)

# Test system: late watergrass
# Experiment: Test Example 1: herbicidal activity, application before weed generation under submerged conditions (Table 16, symbol A)
# Assay type: in vivo, late watergrass (Echinochloa oryzicola)
# Settings: amount of applied herbicide 320 g/ha
# Summary of the method: as §3
row,Structure (SMILES),"Herbicidal effect, A: late watergrass"
1,COc1ccc2c(-c3c(O)c(C)nn(C)c3=O)c(-c3ccc4c(c3)OCCO4)sc2c1 [3-082],3 (Herbicidal rate of 40% or more and less than 70%)
2,CCCC(=O)Oc1c(C)nn(C)c(=O)c1-c1c(-c2ccc3c(c2)OCCO3)sc2cc(OC)ccc12 [3-083],4 (Herbicidal rate of 70% or more and less than 90%)

# Test system: blackgrass
# Experiment: Test Example 4: herbicidal effect by soil treatment (Table 19, symbol J)
# Assay type: in vivo, blackgrass (Alopecurus myosuroides)
# Settings: amount of applied herbicide 320 g/ha
# Summary of the method: as §1
row,Structure (SMILES),"J: blackgrass, herbicidal effect grade"
1,COc1ccc2c(-c3c(O)c(C)nn(C)c3=O)c(-c3ccc4c(c3)OCCO4)sc2c1 [3-082],0 (Herbicidal rate of 5% or less (almost no effect))
2,CCCC(=O)Oc1c(C)nn(C)c(=O)c1-c1c(-c2ccc3c(c2)OCCO3)sc2cc(OC)ccc12 [3-083],0 (Herbicidal rate of 5% or less (almost no effect))

# Test system: green foxtail
# Experiment: Test Example 5: herbicidal effect by foliage application, plastic box (Table 20, symbol G)
# Assay type: in vivo, green foxtail (Setaria viridis)
# Settings: foliage application, 320 g/ha, three weeks after application
# Summary of the method: as §2
row,Structure (SMILES),"G: green foxtail, herbicidal effect grade"
1,COc1ccc2c(-c3c(O)c(C)nn(C)c3=O)c(-c3ccc4c(c3)OCCO4)sc2c1 [3-082],3 (Herbicidal rate of 40% or more and less than 70%)
2,CCCC(=O)Oc1c(C)nn(C)c(=O)c1-c1c(-c2ccc3c(c2)OCCO3)sc2cc(OC)ccc12 [3-083],0 (Herbicidal rate of 5% or less (almost no effect))

# Test system: lambsquarters
# Experiment: Test Example 5: herbicidal effect by foliage application, plastic box (Table 20, symbol O)
# Assay type: in vivo, lambsquarters (Chenopodium album)
# Settings: foliage application, 320 g/ha, three weeks after application
# Summary of the method: as §2
row,Structure (SMILES),"O: lambsquarters, herbicidal effect grade"
1,COc1ccc2c(-c3c(O)c(C)nn(C)c3=O)c(-c3ccc4c(c3)OCCO4)sc2c1 [3-082],5 (Herbicidal rate of 90% or more (almost completely withered))
2,CCCC(=O)Oc1c(C)nn(C)c(=O)c1-c1c(-c2ccc3c(c2)OCCO3)sc2cc(OC)ccc12 [3-083],0 (Herbicidal rate of 5% or less (almost no effect))

# Test system: wild oat
# Experiment: Test Example 5: herbicidal effect by foliage application, plastic box (Table 20, symbol I)
# Assay type: in vivo, wild oat (Avena fatua)
# Settings: foliage application, 320 g/ha, three weeks after application
# Summary of the method: as §2
row,Structure (SMILES),"I: wild oat, herbicidal effect grade"
1,COc1ccc2c(-c3c(O)c(C)nn(C)c3=O)c(-c3ccc4c(c3)OCCO4)sc2c1 [3-082],0 (Herbicidal rate of 5% or less (almost no effect))
2,CCCC(=O)Oc1c(C)nn(C)c(=O)c1-c1c(-c2ccc3c(c2)OCCO3)sc2cc(OC)ccc12 [3-083],0 (Herbicidal rate of 5% or less (almost no effect))

# Test system: persian speedwell
# Experiment: Test Example 5: herbicidal effect by foliage application, plastic box (Table 20, symbol R)
# Assay type: in vivo, Persian speedwell (Veronica persica)
# Settings: foliage application, 320 g/ha, three weeks after application
# Summary of the method: as §2
row,Structure (SMILES),"R: persian speedwell, herbicidal effect grade"
1,COc1ccc2c(-c3c(O)c(C)nn(C)c3=O)c(-c3ccc4c(c3)OCCO4)sc2c1 [3-082],5 (Herbicidal rate of 90% or more (almost completely withered))
2,CCCC(=O)Oc1c(C)nn(C)c(=O)c1-c1c(-c2ccc3c(c2)OCCO3)sc2cc(OC)ccc12 [3-083],5 (Herbicidal rate of 90% or more (almost completely withered))

# Test system: chickweed
# Experiment: Test Example 4: herbicidal effect by soil treatment (Table 19, symbol P)
# Assay type: in vivo, common chickweed (Stellaria media)
# Settings: amount of applied herbicide 320 g/ha
# Summary of the method: as §1
row,Structure (SMILES),"P: chickweed, herbicidal effect grade"
1,COc1ccc2c(-c3c(O)c(C)nn(C)c3=O)c(-c3ccc4c(c3)OCCO4)sc2c1 [3-082],4 (Herbicidal rate of 70% or more and less than 90%)
2,CCCC(=O)Oc1c(C)nn(C)c(=O)c1-c1c(-c2ccc3c(c2)OCCO3)sc2cc(OC)ccc12 [3-083],5 (Herbicidal rate of 90% or more (almost completely withered))

# Test system: barnyard grass
# Experiment: Test Example 3: herbicidal effect by foliage application, Wagner pot (Table 18, symbol H)
# Assay type: in vivo, barnyard grass (Echinochloa crus-galli)
# Settings: 320 g/ha
# Summary of the method: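 Plants were sown in alluvial soil held under 0.1–0.5 cm standing water and grown 14 days in a greenhouse at 25–30 °C. An emulsifiable formulation, water-diluted to the set dose, was then sprayed onto the foliage, and effects were scored three weeks later using previously defined criteria.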
row,Structure (SMILES),herbicidal effect on barnyard grass (H)
1,COc1ccc2c(-c3c(O)c(C)nn(C)c3=O)c(-c3ccc4c(c3)OCCO4)sc2c1 [3-082],5 (Herbicidal rate of 90% or more (almost completely withered))
2,CCCC(=O)Oc1c(C)nn(C)c(=O)c1-c1c(-c2ccc3c(c2)OCCO3)sc2cc(OC)ccc12 [3-083],4 (Herbicidal rate of 70% or more and less than 90%)

# Test system: oval-leafed pondweed
# Experiment: Test Example 2: herbicidal activity, application during weed generation under submerged conditions (Table 17, symbol C)
# Assay type: in vivo, oval-leafed pondweed (Monochoria vaginalis)
# Settings: AAH 320 g/ha; application during weed generation, submerged conditions
# Summary of the method: (§4)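 Herbicide emulsion, diluted with water to the chosen amount, is applied onto 4 cm floodwater over alluvial soil where the weeds were co-sown and raised at 25–30° C. Application timing: 1–2 leaves. Assessment: three weeks afterwards.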
row,Structure (SMILES),"herbicidal effect rating, C: oval-leafed pondweed"
1,COc1ccc2c(-c3c(O)c(C)nn(C)c3=O)c(-c3ccc4c(c3)OCCO4)sc2c1 [3-082],3 (Herbicidal rate of 40% or more and less than 70%)
2,CCCC(=O)Oc1c(C)nn(C)c(=O)c1-c1c(-c2ccc3c(c2)OCCO3)sc2cc(OC)ccc12 [3-083],4 (Herbicidal rate of 70% or more and less than 90%)

# Test system: redroot pigweed
# Experiment: Test Example 5: herbicidal effect by foliage application, plastic box (Table 20, symbol N)
# Assay type: in vivo, redroot pigweed (Amaranthus retroflexus)
# Settings: foliage application, 320 g/ha, three weeks after application
# Summary of the method: as §2
row,Structure (SMILES),"N: redroot pigweed, herbicidal effect grade"
1,COc1ccc2c(-c3c(O)c(C)nn(C)c3=O)c(-c3ccc4c(c3)OCCO4)sc2c1 [3-082],5 (Herbicidal rate of 90% or more (almost completely withered))
2,CCCC(=O)Oc1c(C)nn(C)c(=O)c1-c1c(-c2ccc3c(c2)OCCO3)sc2cc(OC)ccc12 [3-083],3 (Herbicidal rate of 40% or more and less than 70%)

# Test system: southern crabgrass
# Experiment: Test Example 4: herbicidal effect by soil treatment (Table 19, symbol F)
# Assay type: in vivo, southern crabgrass (Digitaria ciliaris)
# Settings: amount of applied herbicide 320 g/ha
# Summary of the method: as §1
row,Structure (SMILES),"F: southern crabgrass, herbicidal effect grade"
1,COc1ccc2c(-c3c(O)c(C)nn(C)c3=O)c(-c3ccc4c(c3)OCCO4)sc2c1 [3-082],0 (Herbicidal rate of 5% or less (almost no effect))
2,CCCC(=O)Oc1c(C)nn(C)c(=O)c1-c1c(-c2ccc3c(c2)OCCO3)sc2cc(OC)ccc12 [3-083],0 (Herbicidal rate of 5% or less (almost no effect))

# Test system: southern crabgrass
# Experiment: Test Example 5: herbicidal effect by foliage application, plastic box (Table 20, symbol F)
# Assay type: in vivo, southern crabgrass (Digitaria ciliaris)
# Settings: foliage application, 320 g/ha, three weeks after application
# Summary of the method: as §2
row,Structure (SMILES),"F: southern crabgrass, herbicidal effect grade"
1,COc1ccc2c(-c3c(O)c(C)nn(C)c3=O)c(-c3ccc4c(c3)OCCO4)sc2c1 [3-082],0 (Herbicidal rate of 5% or less (almost no effect))
2,CCCC(=O)Oc1c(C)nn(C)c(=O)c1-c1c(-c2ccc3c(c2)OCCO3)sc2cc(OC)ccc12 [3-083],3 (Herbicidal rate of 40% or more and less than 70%)

# Test system: late watergrass
# Experiment: Test Example 2: herbicidal activity, application during weed generation under submerged conditions (Table 17, symbol A)
# Assay type: in vivo, late watergrass (Echinochloa oryzicola)
# Settings: AAH 320 g/ha; application during weed generation, submerged conditions
# Summary of the method: as §4
row,Structure (SMILES),"herbicidal effect rating, A: late watergrass"
1,COc1ccc2c(-c3c(O)c(C)nn(C)c3=O)c(-c3ccc4c(c3)OCCO4)sc2c1 [3-082],2 (Herbicidal rate of 20% or more and less than 40%)
2,CCCC(=O)Oc1c(C)nn(C)c(=O)c1-c1c(-c2ccc3c(c2)OCCO3)sc2cc(OC)ccc12 [3-083],2 (Herbicidal rate of 20% or more and less than 40%)

# Test system: false cleavers
# Experiment: Test Example 4: herbicidal effect by soil treatment (Table 19, symbol Q)
# Assay type: in vivo, false cleavers (Galium spurium)
# Settings: amount of applied herbicide 320 g/ha
# Summary of the method: as §1
row,Structure (SMILES),"Q: false cleavers, herbicidal effect grade"
1,COc1ccc2c(-c3c(O)c(C)nn(C)c3=O)c(-c3ccc4c(c3)OCCO4)sc2c1 [3-082],5 (Herbicidal rate of 90% or more (almost completely withered))
2,CCCC(=O)Oc1c(C)nn(C)c(=O)c1-c1c(-c2ccc3c(c2)OCCO3)sc2cc(OC)ccc12 [3-083],4 (Herbicidal rate of 70% or more and less than 90%)
